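A five-concentration, 48-hour dose response in 96-well plates underlies each endpoint, interpolated linearly between surrounding concentrations. GI50 = concentration required for 50% inhibition of growth. Definition used: TGI = concentration required for complete inhibition of growth.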 Bounds are passed on as bounds.

Test systems include A549 NSCLC; HCT-116 colon; HS 578T breast; HT29 colon; K-562 leukemia; MDA-MB-231 breast; NCI-H522 lung; OVCAR-4 ovarian; SNB-19 CNS; UACC-257 melanoma.
What all share (experiment): growth of human tumour cells (NCI), 48 h

For the compound `N#CC1(C2SCCS2=O)C2=C(C(=O)c3ccccc3C2=O)N2CCCC21` (stereo not given), the TGI with A549 NSCLC came to 6.26 µM; with HCT-116 colon, 5.56 µM; in the test on HS 578T breast, 12.8 µM; in the test on HT29 colon, 14.2 µM; in the test with K-562 leukemia, 25.7 µM; with MDA-MB-231 breast, 9.21 µM. The TGI in the test with NCI-H522 lung was found to be 5.78 µM; in the test on OVCAR-4 ovarian, 4.09 µM; in the test on SNB-19 CNS it was 16.8 µM; in the test with UACC-257 melanoma, 2.99 µM.
For the compound `COc1ccc(/C=c2/sc3n(c2=O)C(c2ccc(OC)c(OC)c2)C2=C(N=3)c3cc(F)ccc3OC2)cc1` (stereo not given), the GI50 in the test on A549 NSCLC is 23.6 µM; with HCT-116 colon it was 17.4 µM; with HS 578T breast, 27 µM; in the test with HT29 colon it was 16.2 µM; in the test with K-562 leukemia it was 19.9 µM; in the test on MDA-MB-231 breast, 14.8 µM. Moreover, the GI50 in the test with NCI-H522 lung is 51.8 µM; in the test with OVCAR-4 ovarian it was over 23.2 µM; in the test with SNB-19 CNS it was over 53.2 µM; with UACC-257 melanoma, 35 µM. The TGI is over 82 µM in the test with A549 NSCLC; over 100 µM with HCT-116 colon; over 87.5 µM in the test with HS 578T breast; over 100 µM with HT29 colon; over 100 µM in the test with K-562 leukemia; over 75.1 µM with MDA-MB-231 breast. For the same compound, the TGI in the test with NCI-H522 lung was over 100 µM; in the test with OVCAR-4 ovarian, over 74.1 µM; in the test with SNB-19 CNS, over 100 µM; with UACC-257 melanoma, over 88.8 µM.
Turning to `CC(C)c1ccccc1S(=O)c1ccccc1C(C)(C)O` (stereo not given), the TGI in the test with A549 NSCLC, in the test on HCT-116 colon, in the test with HS 578T breast, in the test with HT29 colon, in the test on K-562 leukemia and in the test on MDA-MB-231 breast was over 100 µM throughout. Also, the TGI in the test with NCI-H522 lung, in the test with OVCAR-4 ovarian, in the test on SNB-19 CNS and with UACC-257 melanoma was over 100 µM throughout.
Turning to `O=C(CCCN1CC=C(n2c(=O)[nH]c3ccccc32)CC1)c1ccc(F)cc1`, the GI50 with A549 NSCLC is 70.2 µM; in the test on HCT-116 colon, 28.5 µM; in the test with HS 578T breast, 24 µM; with HT29 colon, 27.6 µM; in the test on K-562 leukemia it was 29.3 µM; in the test on MDA-MB-231 breast, 62.8 µM. The GI50 is 65.1 µM with NCI-H522 lung, 30 µM with OVCAR-4 ovarian and 60.2 µM in the test with UACC-257 melanoma. For the same compound, the TGI is over 100 µM in the test on A549 NSCLC; over 100 µM in the test on HCT-116 colon; 99.8 µM in the test with HS 578T breast; over 100 µM in the test with HT29 colon; over 100 µM with K-562 leukemia; over 100 µM in the test with MDA-MB-231 breast. Besides, the TGI with NCI-H522 lung, in the test with OVCAR-4 ovarian and in the test on UACC-257 melanoma was over 100 µM each time.
In the case of `O=C(O)c1ccccc1-c1ccccc1C(=O)Nc1ccc2c(c1)Cc1cc(F)ccc1-2`, the TGI was 85.9 µM in the test on A549 NSCLC; 33 µM in the test with HCT-116 colon; over 100 µM with HS 578T breast; over 100 µM with HT29 colon; 83.2 µM in the test on MDA-MB-231 breast; 63 µM with NCI-H522 lung. Moreover, the figures for the TGI in the test with OVCAR-4 ovarian, with SNB-19 CNS and in the test on UACC-257 melanoma were over 100 µM, over 100 µM and 52.2 µM, respectively.
For the compound `Cc1[nH][nH]c(=O)c1C=Nc1ccc(-c2nc3ccccc3[nH]2)cc1`, the GI50 with A549 NSCLC is 42.9 µM; with HS 578T breast, 29 µM; with K-562 leukemia, 27.4 µM; in the test on MDA-MB-231 breast it was 12.8 µM; in the test on NCI-H522 lung it was 31.1 µM; in the test on OVCAR-4 ovarian, 24.4 µM. Besides, the figures for the GI50 in the test on SNB-19 CNS and in the test with UACC-257 melanoma were 22.6 µM and 19.9 µM, respectively. Moreover, the TGI in the test on A549 NSCLC was over 100 µM; with HS 578T breast, 63.9 µM; in the test on K-562 leukemia it was 87.2 µM; in the test on MDA-MB-231 breast, 33.8 µM; with NCI-H522 lung it was 78.1 µM; with OVCAR-4 ovarian it was 76.5 µM. For the same compound, the TGI in the test on SNB-19 CNS was 57.3 µM; in the test with UACC-257 melanoma, 42.1 µM.
Regarding `Cc1[nH]n(-c2cccc(Cl)c2)c(=O)c1/C=C1\C=Nc2ccc(Br)cc21`, the GI50 is 2.27 µM in the test with A549 NSCLC; 2.65 µM with HCT-116 colon; 2.46 µM with HS 578T breast; 4.5 µM in the test on HT29 colon; 3.4 µM in the test with MDA-MB-231 breast; 3.67 µM with NCI-H522 lung. The GI50 in the test with OVCAR-4 ovarian is 1.59 µM; in the test with SNB-19 CNS, 5.79 µM; in the test on UACC-257 melanoma it was 85.7 µM. The TGI with A549 NSCLC was 5.68 µM; in the test on HCT-116 colon, 7.03 µM; in the test on HS 578T breast, 8.04 µM; with HT29 colon, over 100 µM; in the test on MDA-MB-231 breast, 15.3 µM; in the test on NCI-H522 lung, 17.5 µM. The TGI in the test with OVCAR-4 ovarian was 2.95 µM; in the test with SNB-19 CNS, 25.7 µM; in the test with UACC-257 melanoma it was over 100 µM.
Regarding `O=C(O)c1c(-c2nccc3ccccc23)[nH]c(-c2ccccc2)c1S(=O)(=O)O`, the TGI in the test with A549 NSCLC, in the test on HCT-116 colon, with HS 578T breast, in the test with HT29 colon, with MDA-MB-231 breast and with NCI-H522 lung was over 100 µM each time. Also, the TGI in the test on OVCAR-4 ovarian, in the test with SNB-19 CNS and in the test on UACC-257 melanoma was over 100 µM throughout.
As for `O=C1c2ccn(CCCCNC(CO)(CO)CO)c2C(=O)c2c1c(O)c1ccccc1c2O`, the GI50 in the test on A549 NSCLC was 1.86 µM; with HCT-116 colon, 0.436 µM; in the test on HS 578T breast it was 11.5 µM; in the test with HT29 colon, 1.83 µM; in the test with MDA-MB-231 breast, 0.457 µM; in the test with NCI-H522 lung, 4.38 µM. Also, the GI50 in the test with OVCAR-4 ovarian is 2.35 µM; in the test on SNB-19 CNS, 3.33 µM; in the test with UACC-257 melanoma it was 7.71 µM. Moreover, the TGI with A549 NSCLC was 3.96 µM; in the test with HCT-116 colon, 0.857 µM; with HS 578T breast, over 75 µM; in the test on HT29 colon, 4.37 µM; in the test on MDA-MB-231 breast, 2.26 µM; in the test with NCI-H522 lung it was over 100 µM. In addition, the TGI with OVCAR-4 ovarian was over 22.2 µM; in the test with SNB-19 CNS, 22.6 µM; in the test with UACC-257 melanoma it was 24.6 µM.
For the compound `CCN(CC)CC(C)(C)C(=O)/C=C/c1ccc(Cl)c(Cl)c1`, the GI50 in the test on A549 NSCLC is 2.38 µM; with HCT-116 colon, 1.79 µM; with HS 578T breast, 2.45 µM; in the test on K-562 leukemia, 1.1 µM; in the test with MDA-MB-231 breast, 2.06 µM; in the test on NCI-H522 lung it was 1.71 µM. Further, the GI50 in the test on OVCAR-4 ovarian was 1.63 µM; in the test with SNB-19 CNS, 1.82 µM; in the test with UACC-257 melanoma, 2.07 µM. Besides, the TGI in the test with A549 NSCLC amounted to 4.88 µM; in the test on HCT-116 colon, 3.2 µM; in the test with HS 578T breast, 5.94 µM; with K-562 leukemia it was 6.29 µM; in the test with MDA-MB-231 breast, 4.26 µM; in the test on NCI-H522 lung, 3.2 µM. Further, the TGI was 3.2 µM with OVCAR-4 ovarian, 3.54 µM with SNB-19 CNS and 3.64 µM in the test with UACC-257 melanoma.
Take `COc1ccc(C2C(C#N)=C(N)OC3=C2COc2ccc(F)cc23)cc1OC` (stereo not given): the GI50 in the test on A549 NSCLC was 27.2 µM; in the test on HCT-116 colon it was 12 µM; in the test with HS 578T breast, 35.6 µM; with K-562 leukemia, 31.8 µM; in the test with MDA-MB-231 breast, 14.3 µM; in the test on NCI-H522 lung, 54.3 µM. For the same compound, the figures for the GI50 in the test on OVCAR-4 ovarian, in the test with SNB-19 CNS and in the test on UACC-257 melanoma were 24.9 µM, 73.8 µM and 41.4 µM, respectively. Also, the TGI in the test on A549 NSCLC is 63.8 µM; in the test on HCT-116 colon, 36.1 µM; in the test on HS 578T breast, 81.7 µM; with K-562 leukemia, over 100 µM; in the test on MDA-MB-231 breast, 58.8 µM; in the test with NCI-H522 lung, over 100 µM. Also, the TGI with OVCAR-4 ovarian, with SNB-19 CNS and in the test on UACC-257 melanoma was over 100 µM throughout.
In the case of `C#C[C@]1(O)CC[C@H]2[C@@H]3CC=C4c5sc(Nc6ccccc6)nc5CC[C@]4(C)[C@H]3CC[C@@]21C`, the GI50 with A549 NSCLC was 3.48 µM; with HS 578T breast, 0.504 µM; in the test with HT29 colon, 1.81 µM; in the test with K-562 leukemia it was 1.86 µM; in the test with MDA-MB-231 breast, 2.01 µM; in the test with NCI-H522 lung, 2.27 µM. Also, the GI50 with OVCAR-4 ovarian was 3.14 µM; in the test with SNB-19 CNS it was 1.99 µM; with UACC-257 melanoma, 2.46 µM. Besides, the TGI is 24.9 µM with A549 NSCLC; 5.23 µM in the test on HS 578T breast; 6.68 µM with HT29 colon; over 100 µM in the test on K-562 leukemia; 6.8 µM in the test with MDA-MB-231 breast; 6.26 µM in the test on NCI-H522 lung. The TGI amounted to 65.6 µM in the test on OVCAR-4 ovarian, 7.16 µM in the test on SNB-19 CNS and 8.6 µM in the test on UACC-257 melanoma.
`Nc1nc(Nc2ccccc2)c2ncn(Cc3cc4c(cc3Br)OCO4)c2n1`: the GI50 with A549 NSCLC is 0.0491 µM; with HCT-116 colon, 0.046 µM; in the test on HS 578T breast, 0.075 µM; with HT29 colon, 0.0484 µM; in the test on K-562 leukemia, 0.0415 µM; in the test with MDA-MB-231 breast it was 0.0497 µM. Also, the GI50 is 0.0316 µM in the test on NCI-H522 lung, 0.326 µM in the test on OVCAR-4 ovarian and 0.0686 µM with SNB-19 CNS. Besides, the TGI in the test on A549 NSCLC was 11.5 µM; in the test with HCT-116 colon it was 24.9 µM; in the test with HS 578T breast, over 94.9 µM; in the test on HT29 colon it was 0.706 µM; in the test on K-562 leukemia, over 39.9 µM; in the test with MDA-MB-231 breast it was over 51.9 µM. The TGI stood at 0.207 µM in the test with NCI-H522 lung, 55.1 µM with OVCAR-4 ovarian and 22.3 µM with SNB-19 CNS.

Source of the values: PubChem BioAssay (NCI).
